Data reported in article PMC6270917, “Study on the Mechanism of Intestinal Absorption of Epimedins A, B and C in the Caco-2 Cell Model” (Molecules, 2014).
Where two headings read alike, the source gives them in different places.

Key:
Caco-2 cell monolayers = system: Caco-2 cell monolayers; parameters: method as in PMID 11145220; settings: cited from earlier work
Caco-2 cells = experiment: MTT cell viability assay; assay type: cell-based, human; settings: for reduction of cell viability rate of Caco-2 cells: 80 μM (highest concentration), 36 h, vs control; for cytotoxicity to the growth of Caco-2 cells: 10-80 μM
Description: Cell viability was measured using the 3-(4, 5-dimethylthiazol-2-yl)-2,5-diphenyltetrazolium bromide (MTT) assay. The Caco-2 cells were seeded in 96-well plates at a density of 2 × 10^3 cells/well in DMEM culture medium and cultured at 37 °C for 24 h. After that, the culture medium was replaced with fresh medium containing epimedins A, B, and C at concentrations ranging from 10 μM to 80 μM. Control groups consist of cells in medium (without epimedins A, B, and C) which are processed identically and incubated simultaneously as treated groups. And then the 96-well plates were incubated for 36 h. Subsequently, 10 μL of 5 mg/mL MTT was added to each well and the plates were incubated for another 4 h. The solutions in each well were then removed followed by dissolving the remained formazan crystals in the cells with 100 μL DMSO. The absorbance was measured at 550 nm using a microplate reader (Thermo Labsystems, Helsinki, Finland). The cell viability of each compound was calculated as the percentage of the absorbance relative to that of negative control.

[1] = target: T1, breast cancer resistance protein (BCRP) (Homo sapiens, UniProt Q9UNQ0); experiment: Caco-2 transport in the presence of dipyridamole (BCRP inhibitor); assay type: in vitro ADME; settings: 20 μM epimedin
T1 construct: endogenous in cells; host or cells: Caco-2 TC7 cell monolayers
T1 sequence (Q9UNQ0 1-655): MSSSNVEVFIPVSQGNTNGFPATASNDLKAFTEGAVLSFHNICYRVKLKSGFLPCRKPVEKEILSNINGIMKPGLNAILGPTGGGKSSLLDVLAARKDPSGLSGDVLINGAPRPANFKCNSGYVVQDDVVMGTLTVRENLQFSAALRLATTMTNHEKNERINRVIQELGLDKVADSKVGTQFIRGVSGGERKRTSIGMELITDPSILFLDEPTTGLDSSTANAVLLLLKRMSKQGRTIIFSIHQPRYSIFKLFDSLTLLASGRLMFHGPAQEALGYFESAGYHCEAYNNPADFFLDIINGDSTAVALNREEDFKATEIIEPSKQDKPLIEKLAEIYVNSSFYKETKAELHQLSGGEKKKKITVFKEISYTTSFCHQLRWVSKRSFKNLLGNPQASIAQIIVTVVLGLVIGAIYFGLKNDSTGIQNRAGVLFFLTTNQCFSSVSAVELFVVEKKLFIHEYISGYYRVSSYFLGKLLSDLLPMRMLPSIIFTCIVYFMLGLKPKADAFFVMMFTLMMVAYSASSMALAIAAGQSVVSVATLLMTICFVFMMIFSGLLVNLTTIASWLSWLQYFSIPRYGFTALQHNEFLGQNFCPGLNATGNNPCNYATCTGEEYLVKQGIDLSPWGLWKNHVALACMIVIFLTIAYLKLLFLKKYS
Description: (§1) Meanwhile, verapamil was dissolved in water to 2 mM as well as MK571 and dipyridamole were dissolved in dimethyl sulfoxide (DMSO)-ethanol (v/v = 1/1) to prepare the stock solution (10 mM) when they were used. In addition, testosterone (internal standard) was dissolved in acetonitrile with acetic acid (v/v = 94/6) to 100 µM.
(§2) The transport experiments were performed as described previously. Firstly, the cell monolayers were rinsed thrice with 37 °C HBSS (pH 7.4), and the monolayers were incubated with the buffer for 1 h, then the incubation medium was aspirated. Afterwards, transport from the apical side (AP) to basolateral side (BL): 2.9 mL drug solution were added to the AP side (which was regarded as donor side) and 2.5mL HBSS were added to the BL side (which was regarded as receiver side). Transport from the basolateral side to apical side: 2.9 mL drug solution were added to the BL (donor) side and 2.5 mL HBSS were added to the AP (receiver) side. When the transport inhibitors were used, they were loaded only at the donor side. In the test for each solution, four donor samples (400 μL) and four receiver samples (400 μL) were taken at time intervals of 2, 3, 4, and 5 h after incubation, followed by an immediate replacement with fresh donor solution (400 μL) to the donor side or fresh buffer (400 μL) to the receiver side.
(§3) To each transport sample (400 µL), acetonitrile (100 µL) containing 100 µM of testosterone was added as an internal standard and preservation. The resulting mixture was vortexed for 30 sec and then centrifuged at 15,000 rpm for 15min. The supernatant obtained was determined by ultra-performance liquid chromatography (UPLC) within 24 h. At the end of the transport experiment, the TEER value was remeasured to confirm the integrity of the cell monolayer.
While analysis the samples in the presence of another inhibitor (dipyridamole), the conditions were as follows: system and column were the same as before; mobile phase A, 90% acetonitrile, 10%water; mobile phase B, 10% acetonitrile, 90% water containing 0.015% (v/v) formic acid and 0.02% (v/v) triethylamine (pH 3.0); gradient, 0–0.3 min, 95% B, 0.3–2.9 min, 95%–65% B, 3.8 min, 0% B, 3.8–4.5 min, 0%–95% B; flow rate, 0.4 mL/min; wavelength, 270 nm (epimedin A, epimedin B and epimedin C), 285 nm (dipyridamole) and 245 nm (testosterone,); column temperature, 30 °C; and injection volume, 5 μL.
(§4) In the Caco-2 cell model, rate of transport is obtained from amount transported versus time curve using linear regression. […] The rate of drug transport was calculated by linear regression analysis using Microsoft Excel software (Microsoft Corporation, Redmond, WA, USA ). All data were presented as means ± SD. Statistical comparisons were evaluated by ANOVA test using the SPSS 16 software. Results were considered significant at p < 0.05.

[2] = system: multidrug resistance proteins (MRPs); experiment: Caco-2 transport in the presence of MK571 (MRP inhibitor); assay type: in vitro ADME, human; settings: 20 μM epimedin, 50 μM MK571
Description: as §1, §2, §3
(§5) UPLC was used to determine the concentration of the compounds in the transport samples obtained from the Caco-2 model. The conditions for UPLC analysis of epimedin A, epimedin B, and epimedin C in the presence of inhibitors (verapamil or MK571) were as follows: system, Waters Acquity^TM UPLC with photodiode array detector and Empower software; column, Acquity UPLC BEH C18, 1.7 μm, 2.1 × 50 mm (Waters, Milford, MA, USA); mobile phase A, acetonitrile; mobile phase B, water; gradient, 0 to 0.5 min, 25% A, 0.5 to 1.0 min, 25% to 60% A, 1.0 to 2.5 min, 60% to 80% A, 2.5 to 3 min, 80% to 25% A; flow rate, 0.4 mL/min; wavelength, 270 nm (epimedin A, epimedin B and epimedin C), 283nm (MK571), 278 nm (verapamil) and 245 nm (testosterone); column temperature, 30 °C; and injection volume, 5 μL.
as §4

[3] = Bidirectional transport (A-B and B-A) across Caco-2 cell monolayers; assay type: in vitro ADME; settings: human; for efflux ratio at 5 h, 20 µM / efflux ratio at 5 h: Caco-2, pH 7.4; for efflux ratio at 5 h, 20 µM: 20 μM epimedin, no inhibitor, read-out: efflux ratio (PBA/PAB), control without inhibitor; for efflux ratio at 5 h / Papp A→B at 5 h / Papp B→A at 5 h: concentrations of 5–40 μM; for efflux ratio at 5 h: read-out: efflux ratio (PBA/PAB); for Papp A→B at 5 h / Papp B→A at 5 h: Caco-2, HBSS pH 7.4; for Papp A→B at 5 h: A-B direction, read-out: absorptive permeability (PAB); for Papp B→A at 5 h: B-A direction, read-out: secretory permeability (PBA)
Description: The Caco-2 TC7 cell line (at passage 30) is generally similar to the wild-type Caco-2 cell line. […] The conditions for Caco-2 cell culture have been described previously. Cells were cultured in a humidified atmosphere of 5% CO2 and 95% air at 37 °C. The culture medium (Dulbecco’s modified Eagle’s medium ) was supplemented with 10% (v/v) fetal bovine serum, 1% nonessential amino acids, 100 U/mL penicillin, and 100 µg/mL streptomycin. When the cell culture reached 80% confluence, it was rinsed with phosphate-buffered saline and split using trypsin. For transport experiments, the cells were seeded on 3 μm porous polycarbonate cell culture Transwell® inserts from Nunc, which has a surface area of 4.2 cm^2 at a density of 100,000 cells/cm^2. The culture media was replaced every other day. The monolayers were ready for experiments from 19 to 21 days after seeding. Transepithelial electrical resistance (TEER) was used to monitor the integrity and tight junction of the Caco-2 cell monolayer.
Epimedin A, epimedin B, and epimedin C were dissolved in dimethyl sulfoxide (DMSO)-ethanol (v/v = 6/4) to prepare the stock solution (8 mM) for each single compound. The above-mentioned solutions were further diluted with HBSS solution (pH = 7.4) to obtain a series of working standard solutions, and the final concentrations of epimedin A, epimedin B, and epimedin C in the transport samples were 5 µM, 10 µM, 20 µM and 40 µM, respectively. Moreover, the final concentrations of the organic solvent of different samples were controlled below 0.5% to ensure the safety to the cells.
as §2, §3
as §5, with “μL. […]” for “μL.”

P-glycoprotein (P-gp) = target: T2, P-glycoprotein (P-gp) (Homo sapiens, UniProt P08183); experiment: Caco-2 transport in the presence of verapamil (P-gp inhibitor); assay type: in vitro ADME; settings: 20 μM epimedin; for efflux ratio at 5 h, 20 µM: human
T2 construct: endogenous in cells; host or cells: Caco-2 TC7 cell monolayers
Description: as §1, §2, §3, §5, §4

T2 sequence (P08183 whole entry): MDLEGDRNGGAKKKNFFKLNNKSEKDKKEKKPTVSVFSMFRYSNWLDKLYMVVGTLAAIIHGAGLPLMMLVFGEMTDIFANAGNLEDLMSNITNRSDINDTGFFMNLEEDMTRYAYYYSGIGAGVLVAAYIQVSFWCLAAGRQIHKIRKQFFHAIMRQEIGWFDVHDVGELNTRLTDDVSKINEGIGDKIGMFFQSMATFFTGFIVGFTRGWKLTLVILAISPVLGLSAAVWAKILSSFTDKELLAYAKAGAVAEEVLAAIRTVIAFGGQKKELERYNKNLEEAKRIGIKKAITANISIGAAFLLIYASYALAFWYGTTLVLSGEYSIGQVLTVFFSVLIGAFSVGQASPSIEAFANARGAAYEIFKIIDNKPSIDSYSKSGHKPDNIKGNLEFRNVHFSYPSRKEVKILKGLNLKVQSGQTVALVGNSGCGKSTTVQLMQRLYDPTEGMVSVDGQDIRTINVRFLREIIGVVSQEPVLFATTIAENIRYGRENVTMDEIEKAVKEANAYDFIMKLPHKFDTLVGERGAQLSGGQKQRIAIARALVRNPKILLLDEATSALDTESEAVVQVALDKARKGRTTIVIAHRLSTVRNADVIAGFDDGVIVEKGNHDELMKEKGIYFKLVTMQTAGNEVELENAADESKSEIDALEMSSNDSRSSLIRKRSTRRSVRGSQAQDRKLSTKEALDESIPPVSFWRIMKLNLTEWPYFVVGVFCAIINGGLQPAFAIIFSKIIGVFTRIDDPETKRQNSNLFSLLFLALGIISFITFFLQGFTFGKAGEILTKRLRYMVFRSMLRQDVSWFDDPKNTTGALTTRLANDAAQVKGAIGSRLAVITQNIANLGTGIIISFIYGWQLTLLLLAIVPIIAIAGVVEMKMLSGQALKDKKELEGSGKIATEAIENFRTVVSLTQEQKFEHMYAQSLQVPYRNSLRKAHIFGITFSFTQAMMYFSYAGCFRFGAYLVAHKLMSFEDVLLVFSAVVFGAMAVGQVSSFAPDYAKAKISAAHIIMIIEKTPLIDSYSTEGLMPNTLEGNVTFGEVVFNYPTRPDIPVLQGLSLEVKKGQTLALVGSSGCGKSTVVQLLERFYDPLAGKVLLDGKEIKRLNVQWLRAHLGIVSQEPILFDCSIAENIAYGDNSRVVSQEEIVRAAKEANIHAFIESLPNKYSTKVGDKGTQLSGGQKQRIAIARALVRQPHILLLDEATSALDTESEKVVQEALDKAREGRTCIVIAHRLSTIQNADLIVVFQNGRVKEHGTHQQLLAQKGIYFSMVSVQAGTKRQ

reduction of efflux ratio ([1]; 50 μM dipyridamole)	effect on PAB and PBA (transport) [2]	reduction of efflux ratio [2]	efflux ratio at 5 h, 20 µM [3]	efflux ratio at 5 h [3]	Papp A→B at 5 h [3]	Papp B→A at 5 h [3]	reduction of PBA ([1]; 50 μM dipyridamole)	reduction of PBA (P-glycoprotein (P-gp); 50 μM verapamil)	Structure (SMILES)	permeability of poorly absorbed compound (Caco-2 cell monolayers)	reduction of cell viability rate of Caco-2 cells (Caco-2 cells)	cytotoxicity to the growth of Caco-2 cells (Caco-2 cells)	also measured
									O=C(O)c1cc(/N=N/c2ccc(S(=O)(=O)Nc3ccccn3)cc2)ccc1O [sulfasalazine]	0.34 × 10^−6			
									OC[C@@H](O)[C@@H](O)[C@H](O)[C@H](O)CO [mannitol]	1.7e-06 cm/s			
50%	increased	32%	1.98	> 2	0.39 to 0.73 ×10⁻⁶ cm/s	1.19 to 1.76 ×10⁻⁶ cm/s			COc1ccc(-c2oc3c(CC=C(C)C)c(O[C@@H]4O[C@H](CO)[C@@H](O)[C@H](O)[C@H]4O)cc(O)c3c(=O)c2O[C@@H]2O[C@@H](C)[C@H](O)[C@@H](O)[C@H]2O[C@@H]2OC[C@@H](O)[C@H](O)[C@H]2O)cc1 [epimedin B]		7%	nontoxic	effect on absorptive permeability ([1]; 50 μM dipyridamole): increased significantly; effect on secretory permeability ([1]; 50 μM dipyridamole): significantly decreased; efflux ratio at 5 h, 20 µM ([1]; human, Caco-2, pH 7.4, with dipyridamole 50 µM, 50 μM dipyridamole): 1.02; effect on PAB and PBA (P-glycoprotein (P-gp); verapamil): increased; reduction of efflux ratio (P-glycoprotein (P-gp); verapamil): 31%
	did not significantly influence			> 2	0.42 to 0.72 ×10⁻⁶ cm/s	1.2 to 2.28 ×10⁻⁶ cm/s	27%	17%	COc1ccc(-c2oc3c(CC=C(C)C)c(O[C@@H]4O[C@H](CO)[C@@H](O)[C@H](O)[C@H]4O)cc(O)c3c(=O)c2O[C@@H]2O[C@@H](C)[C@H](O)[C@@H](O)[C@H]2O[C@@H]2O[C@@H](C)[C@H](O)[C@@H](O)[C@H]2O)cc1 [epimedin C]		7%	nontoxic	increase in absorptive permeability (PAB) ([1]; 50 μM dipyridamole): 43%; fold reduction of efflux ratio at 5 h, 20 µM ([1]; human, Caco-2, pH 7.4, with dipyridamole (concentration not stated for this group), dipyridamole): ~1.95; increase in absorptive permeability (PAB) (P-glycoprotein (P-gp); 50 μM verapamil): 109%; efflux ratio at 5 h, 20 µM (P-glycoprotein (P-gp); Caco-2, pH 7.4, with verapamil (concentration not stated for this group), verapamil, read-out: reduction of efflux ratio): ~2.5
47%	did not alter	13%	2.04	> 2	0.42 to 0.72 ×10⁻⁶ cm/s	1.29 to 1.89 ×10⁻⁶ cm/s	38%	22%	COc1ccc(-c2oc3c(CC=C(C)C)c(OC4O[C@H](CO)[C@@H](O)[C@H](O)[C@H]4O)cc(O)c3c(=O)c2OC2O[C@@H](C)[C@H](O)[C@@H](O)[C@H]2O[C@@H]2O[C@H](CO)[C@@H](O)[C@H](O)[C@H]2O)cc1 (stereo partly drawn) [epimedin A]		7%	nontoxic	increase of PAB ([1]; 50 μM dipyridamole): 1.2 fold; PAB relative to control group (P-glycoprotein (P-gp); 50 μM verapamil): 1.5 fold; efflux ratio at 5 h, 20 µM (P-glycoprotein (P-gp); Caco-2, pH 7.4, with verapamil 50 µM, 50 μM verapamil, read-out: efflux ratio in the presence of verapamil): 1.03
